Structures can show the parent of a compound that is named as a salt. One block for each molecule: values may come before it.
How the values were obtained:
[1] = target: T1, OATP-C (OATP1B1, SLCO1B1) (Homo sapiens, UniProt Q9Y6L6); assay: TP_TRANSPORTER: inhibition of estrone-3-sulfate uptake (Estrone-3-sulfate: 9.2 nM) by Rosiglitazone at a concentration of 10uM in OATP-C-expressing Xenopus oocytes; assay type: functional, cell-based, Oocyte; conditions: xenopus laevis, probe estrone-3-sulfate
T1 sequence (Q9Y6L6 whole entry): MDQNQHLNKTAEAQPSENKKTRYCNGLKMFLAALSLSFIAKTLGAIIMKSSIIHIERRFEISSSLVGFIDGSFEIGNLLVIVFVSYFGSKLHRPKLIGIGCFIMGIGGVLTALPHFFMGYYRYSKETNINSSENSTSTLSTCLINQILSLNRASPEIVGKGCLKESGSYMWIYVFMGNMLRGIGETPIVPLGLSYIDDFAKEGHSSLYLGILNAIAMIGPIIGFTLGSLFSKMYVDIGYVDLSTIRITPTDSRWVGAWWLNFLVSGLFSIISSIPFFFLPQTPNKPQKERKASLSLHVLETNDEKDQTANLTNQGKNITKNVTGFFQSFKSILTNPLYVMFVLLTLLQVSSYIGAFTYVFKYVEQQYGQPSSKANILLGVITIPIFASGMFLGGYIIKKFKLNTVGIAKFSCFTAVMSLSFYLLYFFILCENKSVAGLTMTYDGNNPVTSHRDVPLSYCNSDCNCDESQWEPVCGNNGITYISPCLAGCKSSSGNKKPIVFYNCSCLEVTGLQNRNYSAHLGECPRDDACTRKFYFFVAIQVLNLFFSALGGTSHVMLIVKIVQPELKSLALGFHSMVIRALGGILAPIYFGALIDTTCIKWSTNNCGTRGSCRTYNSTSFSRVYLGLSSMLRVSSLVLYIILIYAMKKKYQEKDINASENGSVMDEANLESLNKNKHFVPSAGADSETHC

OATP8 (OATP1B3, SLCO1B3) [2] = target: T2, OATP8 (OATP1B3, SLCO1B3) (Homo sapiens, UniProt Q9NPD5); assay: TP_TRANSPORTER: inhibition of estrone-3-sulfate uptake (Estrone-3-sulfate: 9.2 nM) by Quinone Form at a concentration of 10uM in OATP8-expressing Xenopus oocytes; assay type: functional, cell-based, Oocyte; conditions: xenopus laevis, Xenopus laevis oocytes expressing OATP8, probe estrone-3-sulfate
T2 sequence (Q9NPD5 whole entry): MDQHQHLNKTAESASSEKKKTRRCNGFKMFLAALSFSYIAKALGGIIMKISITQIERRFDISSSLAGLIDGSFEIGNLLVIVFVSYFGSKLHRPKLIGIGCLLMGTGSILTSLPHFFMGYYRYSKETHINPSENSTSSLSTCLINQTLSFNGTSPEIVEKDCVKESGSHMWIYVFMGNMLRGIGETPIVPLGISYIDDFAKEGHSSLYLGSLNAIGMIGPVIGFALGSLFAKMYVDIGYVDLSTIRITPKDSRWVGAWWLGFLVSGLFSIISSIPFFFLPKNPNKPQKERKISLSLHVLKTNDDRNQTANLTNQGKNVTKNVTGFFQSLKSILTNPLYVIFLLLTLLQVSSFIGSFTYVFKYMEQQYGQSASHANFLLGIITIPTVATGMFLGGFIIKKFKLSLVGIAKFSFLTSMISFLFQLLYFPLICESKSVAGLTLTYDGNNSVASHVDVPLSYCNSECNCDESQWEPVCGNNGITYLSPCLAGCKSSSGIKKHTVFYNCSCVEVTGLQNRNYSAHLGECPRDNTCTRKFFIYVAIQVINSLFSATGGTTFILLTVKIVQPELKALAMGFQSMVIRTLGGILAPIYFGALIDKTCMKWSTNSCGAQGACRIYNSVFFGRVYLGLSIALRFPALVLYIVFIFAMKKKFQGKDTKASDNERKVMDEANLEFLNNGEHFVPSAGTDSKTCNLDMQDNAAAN

[3] = target: T1, OATP-C (OATP1B1, SLCO1B1); assay: TP_TRANSPORTER: inhibition of estrone-3-sulfate uptake (Estrone-3-sulfate: 9.2 nM) by Quinone Form at a concentration of 10uM in OATP-C-expressing Xenopus oocytes; assay type: functional, cell-based, Oocyte; conditions: xenopus laevis, probe estrone-3-sulfate
[4] = target: T3, Solute carrier organic anion transporter family member 1B1 (Homo sapiens, UniProt Q9Y6L6); assay: TP_TRANSPORTER: uptake in OATP1B1-expressing HEK293 cell; assay type: functional, cell-based
T3 sequence (Q9Y6L6 whole entry): T1 sequence (Q9Y6L6 whole entry)

OATP1B1 (SLCO1B1) [5] = target: T4, OATP1B1 (SLCO1B1) (Homo sapiens, UniProt Q9Y6L6); assay: TP_TRANSPORTER: inhibition of Estrone-3-sulfate uptake(Estrone-3-sulfate: 9.2nM) in Xenopus laevis oocytes; assay type: functional, cell-based, Oocyte; parameters: scale not given: the % may be the effect or the level left; conditions: probe estrone-3-sulfate
T4 sequence (Q9Y6L6 whole entry): T1 sequence (Q9Y6L6 whole entry)

OATP1B1 (SLCO1B1) [6] = target: T4, OATP1B1 (SLCO1B1); assay: TP_TRANSPORTER: inhibition of E1S uptake (irinotecan 10 u M) in OATP1B1-expressing HEK293 cells; assay type: functional, cell-based; parameters: scale not given: the % may be the effect or the level left; conditions: HEK293 cells expressing OATP1B1, probe estrone-3-sulfate (E1S), read-out: Activity
OATP8 (OATP1B3, SLCO1B3) [7] = target: T2, OATP8 (OATP1B3, SLCO1B3); assay: TP_TRANSPORTER: inhibition of estrone-3-sulfate uptake (Estrone-3-sulfate: 9.2 nM) by Pioglitazone at a concentration of 10uM in OATP8-expressing Xenopus oocytes; assay type: functional, cell-based, Oocyte; conditions: xenopus laevis, Xenopus laevis oocytes expressing OATP8, probe estrone-3-sulfate
[8] = target: T1, OATP-C (OATP1B1, SLCO1B1); assay: TP_TRANSPORTER: inhibition of estrone-3-sulfate uptake (Estrone-3-sulfate: 9.2 nM) by Pioglitazone at a concentration of 10uM in OATP-C-expressing Xenopus oocytes; assay type: functional, cell-based, Oocyte; conditions: xenopus laevis, probe estrone-3-sulfate
[9] = target: T3, Solute carrier organic anion transporter family member 1B1; assay: TP_TRANSPORTER: inhibition of E1S uptake (SN38 G 10 u M) in OATP1B1-expressing HEK293 cells; assay type: functional, cell-based; conditions: hek293, 10 µM
OATP8 (OATP1B3, SLCO1B3) [10] = target: T2, OATP8 (OATP1B3, SLCO1B3); assay: TP_TRANSPORTER: inhibition of estrone-3-sulfate uptake (Estrone-3-sulfate: 9.2 nM) by Troglitazone sulfate at a concentration of 10uM in OATP8-expressing Xenopus oocytes; assay type: functional, cell-based, Oocyte; conditions: xenopus laevis, Xenopus laevis oocytes expressing OATP8, probe estrone-3-sulfate
[11] = target: T1, OATP-C (OATP1B1, SLCO1B1); assay: TP_TRANSPORTER: inhibition of estrone-3-sulfate uptake (Estrone-3-sulfate: 9.2 nM) by Troglitazone sulfate at a concentration of 10uM in OATP-C-expressing Xenopus oocytes; assay type: functional, cell-based, Oocyte; conditions: xenopus laevis, probe estrone-3-sulfate
[12] = target: T3, Solute carrier organic anion transporter family member 1B1; assay: TP_TRANSPORTER: cell accumulation in OATP-C-expressing Xenopus oocytes; assay type: functional, cell-based; conditions: xenopus laevis, oocyte
[13] = target: T1, OATP-C (OATP1B1, SLCO1B1); assay: TP_TRANSPORTER: inhibition of estrone-3-sulfate uptake (Estrone-3-sulfate: 9.2 nM) by Troglitazone at a concentration of 10uM in OATP-C-expressing Xenopus oocytes; assay type: functional, cell-based, Oocyte; conditions: xenopus laevis, probe estrone-3-sulfate
[14] = target: T5, Solute carrier organic anion transporter family member 1B3 (Homo sapiens, UniProt Q9NPD5); assay: TP_TRANSPORTER: cell accumulation in OATP8-expressing Xenopus oocytes; assay type: functional, cell-based; conditions: xenopus laevis, oocyte
T5 sequence (Q9NPD5 whole entry): T2 sequence (Q9NPD5 whole entry)

[15] = target: T5, Solute carrier organic anion transporter family member 1B3; assay: TP_TRANSPORTER: uptake of SN-38 at a concentration of 0.09uL/oocyte in Xenopus laevis oocytes; assay type: functional, cell-based
[16] = target: T3, Solute carrier organic anion transporter family member 1B1; assay: TP_TRANSPORTER: uptake of SN-38 at a concentration of 0.16uL/oocyte in Xenopus laevis oocytes; assay type: functional, cell-based
[17] = target: T3, Solute carrier organic anion transporter family member 1B1; assay: TP_TRANSPORTER: uptake in OATP1B1-expressing HEK293 cells; assay type: functional, cell-based
[18] = target: T6, Solute carrier organic anion transporter family member 2B1 (Homo sapiens, UniProt O94956); assay: TP_TRANSPORTER: uptake of SN-38 at a concentration of 0.10uL/oocyte in Xenopus laevis oocytes; assay type: functional, cell-based
T6 sequence (O94956 whole entry): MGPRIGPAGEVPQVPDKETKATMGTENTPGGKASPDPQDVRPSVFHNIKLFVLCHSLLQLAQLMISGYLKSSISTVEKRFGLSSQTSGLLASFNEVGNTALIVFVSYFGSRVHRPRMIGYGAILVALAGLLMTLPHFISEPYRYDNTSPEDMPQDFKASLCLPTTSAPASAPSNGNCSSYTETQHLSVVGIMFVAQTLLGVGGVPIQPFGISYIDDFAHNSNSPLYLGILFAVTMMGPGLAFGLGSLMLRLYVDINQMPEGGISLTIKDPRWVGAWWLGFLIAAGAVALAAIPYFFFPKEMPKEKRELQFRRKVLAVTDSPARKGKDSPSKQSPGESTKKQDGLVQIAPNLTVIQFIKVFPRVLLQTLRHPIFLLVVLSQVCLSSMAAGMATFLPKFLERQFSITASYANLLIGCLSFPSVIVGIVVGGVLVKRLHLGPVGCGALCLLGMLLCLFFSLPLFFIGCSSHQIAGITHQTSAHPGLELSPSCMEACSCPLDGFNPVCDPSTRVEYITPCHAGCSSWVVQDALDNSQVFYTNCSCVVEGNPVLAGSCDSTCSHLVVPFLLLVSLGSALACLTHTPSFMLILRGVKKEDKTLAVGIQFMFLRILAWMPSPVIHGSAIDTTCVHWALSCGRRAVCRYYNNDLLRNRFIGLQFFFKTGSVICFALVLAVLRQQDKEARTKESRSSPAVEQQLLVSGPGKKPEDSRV

[19] = target: T3, Solute carrier organic anion transporter family member 1B1; assay: TP_TRANSPORTER: inhibition of E1S uptake (SN38 10 u M) in OATP1B1-expressing HEK293 cells; assay type: functional, cell-based; parameters: scale not given: the % may be the effect or the level left; conditions: hek293, 10 µM
[20] = target: T1, OATP-C (OATP1B1, SLCO1B1); assay: TP_TRANSPORTER: inhibition of estrone-3-sulfate uptake (Estrone-3-sulfate: 9.2 nM) by Troglitazone glucuronide at a concentration of 10uM in OATP-C-expressing Xenopus oocytes; assay type: functional, cell-based, Oocyte; conditions: xenopus laevis, probe estrone-3-sulfate

Structure (SMILES): CCc1c2c(nc3ccc(OC(=O)N4CCC(N5CCCCC5)CC4)cc13)-c1cc3c(c(=O)n1C2)COC(=O)[C@]3(O)CC [IRINOTECAN]
Activity [4]: is not a substrate [-] | Activity (OATP1B1 (SLCO1B1) [5]): 60% | activity at 10 µM (OATP1B1 (SLCO1B1) [6]): 60%

Structure (SMILES): CCc1c2c(nc3ccc(OC[C@@H]4O[C@H](C(=O)O)[C@@H](O)[C@H](O)[C@H]4O)cc13)-c1cc3c(c(=O)n1C2)COC(=O)[C@]3(O)CC
Activity [4]: is not a substrate [-] | Activity (OATP1B1 (SLCO1B1) [5]): 45% | Activity [9]: is not an inhibitor [-]

Structure (SMILES): C[C@]12CC[C@@H]3c4ccc(OS(=O)(=O)O)cc4CC[C@H]3[C@@H]1CCC2=O [ESTRONE SULFURIC ACID]
Activity [14]: substrate [] | Activity [12]: substrate []

Structure (SMILES): CCc1c2c(nc3ccc(O)cc13)-c1cc3c(c(=O)n1C2)COC(=O)[C@]3(O)CC [7-ETHYL-10-HYDROXYCAMPTOTHECIN]
Activity [15]: is not a substrate [-] | Activity [4]: substrate [+] | Activity (OATP1B1 (SLCO1B1) [5]): 85% | Activity [16]: substrate [+] | Activity [17]: substrate [] | Activity [18]: is not a substrate [-] | Activity [19]: 50%

Structure (SMILES): Cc1c(C)c2c(c(C)c1O[C@@H]1O[C@H](C(=O)O)[C@@H](O)[C@H](O)[C@H]1O)CCC(C)(COc1ccc(CC3SC(=O)NC3=O)cc1)O2 (stereo not given in full) [TROGLITAZONE GLUCURONIDE]
inhibition at 10 µM [20]: 30%

The remaining lines, values ahead:

inhibition at 10 µM [1]: 60%
Structure (SMILES): CN(CCOc1ccc(CC2SC(=O)NC2=O)cc1)c1ccccn1 (stereo not given) [ROSIGLITAZONE]

inhibition at 10 µM (OATP8 (OATP1B3, SLCO1B3) [2]): 60% | inhibition at 10 µM [3]: 20%
Structure (SMILES): CC1=CC(=O)C(C)=C(CCC(C)(C)COc2ccc(CC3SC(=O)NC3=O)cc2)C1=O (stereo not given) [QUINONE FORM]

inhibition at 10 µM (OATP8 (OATP1B3, SLCO1B3) [7]): 65% | inhibition at 10 µM [8]: 70%
Structure (SMILES): CCc1ccc(CCOc2ccc(CC3SC(=O)NC3=O)cc2)nc1 (stereo not given) [PIOGLITAZONE]

inhibition at 10 µM (OATP8 (OATP1B3, SLCO1B3) [10]): 20% | inhibition at 10 µM [11]: 5% | Activity [12]: substrate []
Structure (SMILES): Cc1c(C)c2c(c(C)c1OS(=O)(=O)O)CCC(C)(COc1ccc(CC3SC(=O)NC3=O)cc1)O2 (stereo not given) [TROGLITAZONE SULFATE]

inhibition at 10 µM [13]: 35%
Structure (SMILES): Cc1c(C)c2c(c(C)c1O)CCC(C)(COc1ccc(CC3SC(=O)NC3=O)cc1)O2 (stereo not given) [TROGLITAZONE]

Reference: ChEMBL document CHEMBL2073784, “Involvement of organic anion transporting polypeptides in the transport of troglitazone sulfate: implications for understanding troglitazone hepatotoxicity” (Drug Metab Dispos, 2004)
